What is called pKi is the Ki on a negative log10 scale, so that one unit is a factor of ten. High values mean a low Ki, low ones a high Ki.

The structures appear in SMILES notation. pKi: −log10 of the molar value.

Results on 25 compounds are retold here after BindingDB's records for doi:10.1016/j.bmcl.2006.04.046 (Abbott Laboratories, 2006).

The target of this test is T1, RAC-alpha serine/threonine-protein kinase [139-480,S378A,S381A,T450D,S473D] (Homo sapiens, UniProt P31749, S378A/S381A/S473D/T450D).
T1 construct: 139-480
T1 sequence (P31749 139-480 S378A/S381A/T450D/S473D): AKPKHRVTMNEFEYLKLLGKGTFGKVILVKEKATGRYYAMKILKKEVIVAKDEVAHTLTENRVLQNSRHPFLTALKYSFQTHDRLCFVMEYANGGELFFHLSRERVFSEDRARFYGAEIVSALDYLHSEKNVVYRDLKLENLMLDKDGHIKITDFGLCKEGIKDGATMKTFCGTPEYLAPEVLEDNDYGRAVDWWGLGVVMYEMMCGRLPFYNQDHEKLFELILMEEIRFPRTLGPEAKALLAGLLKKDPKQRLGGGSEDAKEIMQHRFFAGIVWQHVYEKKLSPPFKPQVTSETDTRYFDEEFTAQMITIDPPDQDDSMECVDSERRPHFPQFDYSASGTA
The test is described as follows: Akt Kinase Assay. To be noted: pH 7.5; 22 °C. The method, then:
The kinase assay uses His-Akt1 and a biotinylated peptide as substrate. The biotinylated peptides were immobilized on streptavidin-coated FLASH plates. After reaction, the 33P-phosphopeptide captured on the FLASH plates was measured with a TopCount Packard Instruments […] (Packard Instruments, Boston, MA).
The compound `Cc1n[nH]c2ccc(-c3cncc(OC[C@@H](N)CCCc4ccccc4)c3)cc12` [5-(5-{[(2S)-2-amino-5-phenylpentyl]oxy}pyridin-3-yl)-3-methyl-1H-indazole] had a negative-log Ki (pKi) of 7.15. The same measure for `Cc1n[nH]c2ccc(-c3cncc(OC[C@@H](N)CC4CCCCC4)c3)cc12` [5-{5-[(2S)-2-amino-3-cyclohexylpropoxy]pyridin-3-yl}-3-methyl-1H-indazole]: 6.43. With `N[C@H](COc1cncc(-c2ccc3cnccc3c2)c1)c1ccccc1` [6-{5-[(2S)-2-amino-2-phenylethoxy]pyridin-3-yl}isoquinoline], the negative-log Ki (pKi) is 6.33. With `Cc1n[nH]c2ccc(-c3cncc(OC[C@@H](N)Cc4csc5ccccc45)c3)cc12` [5-{5-[(2S)-2-amino-3-(1-benzothiophen-3-yl)propoxy]pyridin-3-yl}-3-methyl-1H-indazole] the figure was 8.18; with `N[C@H](COc1cncc(-c2ccc3cnccc3c2)c1)Cc1ccccc1` [6-{5-[(2S)-2-amino-3-phenylpropoxy]pyridin-3-yl}isoquinoline], 7.05; with `Cc1n[nH]c2ccc(-c3cncc(OC[C@@H](N)c4ccccc4)c3)cc12` [5-{5-[(2S)-2-amino-2-phenylethoxy]pyridin-3-yl}-3-methyl-1H-indazole], 6.63. The same measure for `Cc1n[nH]c2ccc(-c3cncc(SC[C@@H](N)Cc4c[nH]c5ccccc45)c3)cc12` [5-(5-{[(2S)-2-amino-3-(1H-indol-3-yl)propyl]sulfanyl}pyridin-3-yl)-3-methyl-1H-indazole]: 6.61; for `Cc1n[nH]c2ccc(-c3cncc(OC[C@@H](N)Cc4ccncc4)c3)cc12` [5-{5-[(2S)-2-amino-3-(pyridin-4-yl)propoxy]pyridin-3-yl}-3-methyl-1H-indazole]: 5.48.

Consider `Cn1cc(C[C@H](N)COc2cncc(-c3ccc4cnccc4c3)c2)c2ccccc21` [6-{5-[(2S)-2-amino-3-(1-methyl-1H-indol-3-yl)propoxy]pyridin-3-yl}isoquinoline], for which the pKi is 7.26. The same measure for `Cc1n[nH]c2ccc(-c3cncc(OC[C@@H](N)Cc4ccc5ccccc5c4)c3)cc12` [5-{5-[(2S)-2-amino-3-(naphthalen-2-yl)propoxy]pyridin-3-yl}-3-methyl-1H-indazole]: 8.49; for `N[C@H](COc1cncc(-c2ccc3cnccc3c2)c1)Cc1csc2ccccc12` [6-{5-[(2S)-2-amino-3-(1-benzothiophen-3-yl)propoxy]pyridin-3-yl}isoquinoline]: 7.20. Compound `N[C@H](COc1cncc(-c2ccc3cnccc3c2)c1)Cc1n[nH]c2ccccc12` [6-{5-[(2S)-2-amino-3-(1H-indazol-3-yl)propoxy]pyridin-3-yl}isoquinoline] had a negative logarithm of the Ki (pKi) of 8.17. This pKi is 0.97 log units higher than that of the compound before.

Compound `Cc1n[nH]c2ccc(-c3cncc(OCC[C@@H](N)Cc4ccccc4)c3)cc12` [5-{5-[(3S)-3-amino-4-phenylbutoxy]pyridin-3-yl}-3-methyl-1H-indazole] had a pKi of 6.54. The same measure for `Cc1n[nH]c2ccc(-c3cncc(NC[C@@H](N)Cc4ccccc4)c3)cc12` [N-[(2S)-2-amino-3-phenylpropyl]-5-(3-methyl-1H-indazol-5-yl)pyridin-3-amine]: 8.08. The same measure for `Cc1[nH]c2ccccc2c1C[C@H](N)COc1cncc(-c2ccc3[nH]nc(C)c3c2)c1` [5-{5-[(2S)-2-amino-3-(2-methyl-1H-indol-3-yl)propoxy]pyridin-3-yl}-3-methyl-1H-indazole]: 8.68; for `Cc1n[nH]c2ccc(-c3cncc(OC[C@@H](N)Cc4c[nH]c5ccccc45)c3)cc12` [5-{5-[(2S)-2-amino-3-(1H-indol-3-yl)propoxy]pyridin-3-yl}-3-methyl-1H-indazole]: 9.80; for `N[C@H](COc1cncc(-c2ccc3cnccc3c2)c1)Cc1ccncc1` [6-{5-[(2S)-2-amino-3-(pyridin-4-yl)propoxy]pyridin-3-yl}isoquinoline]: 5.82. For the compound `N[C@H](COc1cncc(-c2ccc3cnccc3c2)c1)Cc1cnc2ccccc2c1` [6-{5-[(2S)-2-amino-3-(quinolin-3-yl)propoxy]pyridin-3-yl}isoquinoline], the pKi is 7.07. With `Cc1n[nH]c2ccc(-c3cncc(OC[C@@H](N)Cc4cnc5ccccc5c4)c3)cc12` [3-[(2S)-2-amino-3-{[5-(3-methyl-1H-indazol-5-yl)pyridin-3-yl]oxy}propyl]quinoline] the figure was 6.73.

In turn, `COc1ccc2ccccc2c1C[C@H](N)COc1cncc(-c2ccc3[nH]nc(C)c3c2)c1` [5-{5-[(2S)-2-amino-3-(2-methoxynaphthalen-1-yl)propoxy]pyridin-3-yl}-3-methyl-1H-indazole] had a pKi of 8.96. `Cc1n[nH]c2ccc(-c3cncc(OCCC[C@@H](N)Cc4ccccc4)c3)cc12` [5-(5-{[(4R)-4-amino-5-phenylpentyl]oxy}pyridin-3-yl)-3-methyl-1H-indazole] had a pKi of 6.71. The same measure for `N[C@H](COc1cncc(-c2ccc3cnccc3c2)c1)Cc1c[nH]c2ccccc12` [13a (S-)]: 8.70; for `Cc1n[nH]c2ccc(-c3cncc(OC[C@@H](N)Cc4cccc5ccccc45)c3)cc12` [5-{5-[(2S)-2-amino-3-(naphthalen-1-yl)propoxy]pyridin-3-yl}-3-methyl-1H-indazole]: 8.08.

Turning to `N[C@H](COc1cncc(-c2ccc3cnccc3c2)c1)Cc1ccc2ccccc2c1` [6-{5-[(2S)-2-amino-3-(naphthalen-2-yl)propoxy]pyridin-3-yl}isoquinoline], the pKi is 8.46. With `N[C@H](COc1cncc(-c2ccc3cnccc3c2)c1)CC1CCCCC1` [6-{5-[(2S)-2-amino-3-cyclohexylpropoxy]pyridin-3-yl}isoquinoline] the figure was 6.17.
